# Measurements as given in US20250222109A1, “STRUCTURED LIPID COMPOSITIONS” (Universität Bern, priority 2022, published 2025).
# Experiments:
# [1] = Drug encapsulation and distribution in TIF-Gel (WAXS, HPLC of gel layers); assay type: physicochemical
# Protocol: The tube was centrifuged and kept at rest for 24 hours. Subsequently, the gel was divided into 3 different layers (Top, Middle, and Bottom), and the drug content evaluated in each by HPLC.
# WAXS measurements were performed on a Bruker AXS Micro, with a microfocused X-ray source, operating at voltage and filament current of 50 kV and 1000 μA, respectively. The Cu Kα radiation (λCu Kα=1.5418 Å) was collimated by a 2D Kratky collimator, and the data were collected by a 2D Pilatus 100K detector. The scattering vector Q=(4π/λ) sin θ, with 2θ being the scattering angle, was calibrated using silver behenate. Data were collected and azimuthally averaged using the Saxsgui software to yield 1D intensity vs. scattering vector Q, with a Q range from 13 to 18 nm-1. For all measurements the samples were placed inside a stainless-steel cell between two thin replaceable mica sheets and sealed by an O-ring, with a sample volume of 10 μL and a thickness of ˜1 mm.
# The TAC loaded mesophase composition comprised: a) a carrier comprising: a1) water in an amount of 16% by weight of the carrier; and a2) MLO in an amount of 84% by weight of the carrier; and b) TAC in an amount of 1% by weight of the composition.
# [2] = Stability study of TAC and TOFA-loaded TIF-Gel (HPLC); assay type: physicochemical; conditions: 4° C. and 25° C., one-month period
# Protocol: The TAC and TOFA-loaded TIF-Gels were prepared according to Example 1. […] The TAC-loaded TIF-Gel composition comprised a) a carrier comprising: a1) water in an amount of 16% by weight of the carrier; and a2) MLO in an amount of 84% by weight of the carrier; and b) TAC in an amount of 1% by weight of the composition. […] At specific time points, an aliquot of the formulation was analysed at the HPLC, and the content of the drug was recorded. Data are expressed as relative percentage referred to day 0.
# [3] = SAXS phase identification of MLO-water mesophases (TIF-Gel); assay type: physicochemical; conditions: 5 mg of TOFA and 1 mg of TAC in 100 mg of gel
# T cell transfer colitis = assay: T-cell transfer colitis; assay type: in vivo, mice; conditions: colonoscopy, day 19 post T cell application
smiles,measurement,setting,value
"C=CC[C@@H]1/C=C(\C)C[C@H](C)C[C@H](OC)[C@H]2O[C@@](O)(C(=O)C(=O)N3CCCC[C@H]3C(=O)O[C@H](/C(C)=C/[C@@H]3CC[C@@H](O)[C@H](OC)C3)[C@H](C)[C@@H](O)CC1=O)[C@H](C)C[C@@H]2OC [TAC, tacrolimus]",distribution of drug in the gel matrix,"[1]; Top, Middle and Bottom gel layers, HPLC",homogeneously distributed
same,drug crystallisation in the gel (WAXS),[1]; embedded in the 3D gel structure,do not form crystals
same,encapsulation efficacy,[1]; encapsulated in the TIF-Gel,100%
same,long-term stability of drug loaded into TIF-gel (drug content by HPLC),[2],stable
same,effect of drug entrapment on phase identity and thermal behaviour of the carrier gel,[3],did not affect the phase identity and thermal behaviour
same,endoscopic signs of colitis,T cell transfer colitis,reduced endoscopic signs of colitis
